Test: mn = molality of the nth substance listed, in mol/kg
Conditions: 84.51 kPa, Liquid; for speed of sound: Frequency=3 MHz, Sing-around technique in a fixed-path interferometer; for mass density: Vibrating tube method

CCCCCCCCCCCCn1cc[n+](C)c1.[Br-] [1-dodecyl-3-methylimidazolium bromide] + O
Conditions | mass density [kg/m3] | speed of sound [m/s]
288.15 K, m1 = 0.00233 | 999.188 | 1467.3
288.15 K, m1 = 0.00278 | 999.209 | 1467.4
288.15 K, m1 = 0.00301 | 999.216 | 1467.5
288.15 K, m1 = 0.00467 | 999.282 | 1467.7
288.15 K, m1 = 0.00501 | 999.296 | 1467.9
288.15 K, m1 = 0.00665 | 999.36 | 1468.4
288.15 K, m1 = 0.00889 | 999.451 | 1469
288.15 K, m1 = 0.00906 | 999.458 | 1469
288.15 K, m1 = 0.01229 | 999.569 | 1469.4
288.15 K, m1 = 0.01511 | 999.659 | 1469.4
288.15 K, m1 = 0.01804 | 999.736 | 1469.5
288.15 K, m1 = 0.02431 | 999.927 | 1469.6
288.15 K, m1 = 0.03042 | 1000.12 | 1469.7
288.15 K, m1 = 0.04595 | 1000.6 | 1470
288.15 K, m1 = 0.06124 | 1001.06 | 1470.2
288.15 K, m1 = 0.07667 | 1001.51 | 1470.5
288.15 K, m1 = 0.098 | 1002.15 | 1471
288.15 K, m1 = 0.1095 | 1002.5 | 1471.1
293.15 K, m1 = 0.00233 | 998.288 | 1483.3
293.15 K, m1 = 0.00278 | 998.306 | 1483.3
293.15 K, m1 = 0.00301 | 998.314 | 1483.4
293.15 K, m1 = 0.00467 | 998.376 | 1483.7
293.15 K, m1 = 0.00501 | 998.39 | 1483.9
293.15 K, m1 = 0.00665 | 998.451 | 1484.2
293.15 K, m1 = 0.00889 | 998.538 | 1484.8
293.15 K, m1 = 0.00906 | 998.544 | 1484.8
293.15 K, m1 = 0.01229 | 998.652 | 1485.1
293.15 K, m1 = 0.01511 | 998.738 | 1485.1
293.15 K, m1 = 0.01804 | 998.815 | 1485.2
293.15 K, m1 = 0.02431 | 998.999 | 1485.2
293.15 K, m1 = 0.03042 | 999.185 | 1485.3
293.15 K, m1 = 0.04595 | 999.641 | 1485.4
293.15 K, m1 = 0.06124 | 1000.09 | 1485.5
293.15 K, m1 = 0.07667 | 1000.53 | 1485.7
293.15 K, m1 = 0.098 | 1001.14 | 1486
293.15 K, m1 = 0.1095 | 1001.48 | 1486.1
298.15 K, m1 = 0.00233 | 997.123 | 1497.4
298.15 K, m1 = 0.00278 | 997.142 | 1497.4
298.15 K, m1 = 0.00301 | 997.148 | 1497.6
298.15 K, m1 = 0.00467 | 997.208 | 1497.8
298.15 K, m1 = 0.00501 | 997.221 | 1497.9
298.15 K, m1 = 0.00665 | 997.28 | 1498.2
298.15 K, m1 = 0.00889 | 997.362 | 1498.8
298.15 K, m1 = 0.00906 | 997.366 | 1498.8
298.15 K, m1 = 0.01229 | 997.472 | 1499.1
298.15 K, m1 = 0.01511 | 997.555 | 1499.1
298.15 K, m1 = 0.01804 | 997.629 | 1499.1
298.15 K, m1 = 0.02431 | 997.806 | 1499.1
298.15 K, m1 = 0.03042 | 997.989 | 1499.1
298.15 K, m1 = 0.04595 | 998.429 | 1499.1
298.15 K, m1 = 0.06124 | 998.861 | 1499
298.15 K, m1 = 0.07667 | 999.288 | 1499.1
298.15 K, m1 = 0.098 | 999.878 | 1499.2
298.15 K, m1 = 0.1095 | 1000.21 | 1499.2
303.15 K, m1 = 0.00233 | 995.721 | 1509.7
303.15 K, m1 = 0.00278 | 995.74 | 1509.7
303.15 K, m1 = 0.00301 | 995.746 | 1509.8
303.15 K, m1 = 0.00467 | 995.801 | 1510
303.15 K, m1 = 0.00501 | 995.814 | 1510
303.15 K, m1 = 0.00665 | 995.873 | 1510.4
303.15 K, m1 = 0.00889 | 995.95 | 1511
303.15 K, m1 = 0.00906 | 995.955 | 1511
303.15 K, m1 = 0.01229 | 996.058 | 1511.2
303.15 K, m1 = 0.01511 | 996.137 | 1511.2
303.15 K, m1 = 0.01804 | 996.207 | 1511.2
303.15 K, m1 = 0.02431 | 996.381 | 1511.1
303.15 K, m1 = 0.03042 | 996.556 | 1511
303.15 K, m1 = 0.04595 | 996.985 | 1510.9
303.15 K, m1 = 0.06124 | 997.402 | 1510.8
303.15 K, m1 = 0.07667 | 997.814 | 1510.7
303.15 K, m1 = 0.098 | 998.386 | 1510.5
303.15 K, m1 = 0.1095 | 998.705 | 1510.5
308.15 K, m1 = 0.00233 | 994.1 | 1520.3
308.15 K, m1 = 0.00278 | 994.121 | 1520.2
308.15 K, m1 = 0.00301 | 994.125 | 1520.4
308.15 K, m1 = 0.00467 | 994.18 | 1520.6
308.15 K, m1 = 0.00501 | 994.193 | 1520.6
308.15 K, m1 = 0.00665 | 994.246 | 1520.9
308.15 K, m1 = 0.00889 | 994.32 | 1521.4
308.15 K, m1 = 0.00906 | 994.325 | 1521.4
308.15 K, m1 = 0.01229 | 994.423 | 1521.7
308.15 K, m1 = 0.01511 | 994.502 | 1521.6
308.15 K, m1 = 0.01804 | 994.571 | 1521.6
308.15 K, m1 = 0.02431 | 994.739 | 1521.5
308.15 K, m1 = 0.03042 | 994.91 | 1521.4
308.15 K, m1 = 0.04595 | 995.323 | 1521.1
308.15 K, m1 = 0.06124 | 995.729 | 1520.8
308.15 K, m1 = 0.07667 | 996.129 | 1520.7
308.15 K, m1 = 0.098 | 996.685 | 1520.3
308.15 K, m1 = 0.1095 | 996.993 | 1520.1
313.15 K, m1 = 0.00233 | 992.28 | 1529.3
313.15 K, m1 = 0.00278 | 992.299 | 1529.3
313.15 K, m1 = 0.00301 | 992.305 | 1529.4
313.15 K, m1 = 0.00467 | 992.357 | 1529.6
313.15 K, m1 = 0.00501 | 992.368 | 1529.6
313.15 K, m1 = 0.00665 | 992.422 | 1529.8
313.15 K, m1 = 0.00889 | 992.489 | 1530.3
313.15 K, m1 = 0.00906 | 992.495 | 1530.3
313.15 K, m1 = 0.01229 | 992.591 | 1530.6
313.15 K, m1 = 0.01511 | 992.671 | 1530.5
313.15 K, m1 = 0.01804 | 992.736 | 1530.5
313.15 K, m1 = 0.02431 | 992.896 | 1530.3
313.15 K, m1 = 0.03042 | 993.064 | 1530.1
313.15 K, m1 = 0.04595 | 993.467 | 1529.7
313.15 K, m1 = 0.06124 | 993.86 | 1529.3
313.15 K, m1 = 0.07667 | 994.248 | 1529
313.15 K, m1 = 0.098 | 994.79 | 1528.5
313.15 K, m1 = 0.1095 | 995.087 | 1528.2
